Measured values: ChEMBL document CHEMBL3352698, “Synthesis of 3',4'-difluoro-3'-deoxyribonucleosides and its evaluation of the biological activities: discovery of a novel type of anti-HCV agent 3',4'-difluorocordycepin” (Bioorg Med Chem, 2014)
Calls of active or inactive are those of the source. No cut-off for these calls is given here.

What was measured:
[1] = tested on: Hepatitis C virus; experiment: Antiviral activity against Hepatitis C virus infected in […] after 72 hrs by luciferase reporter gene assay; type: functional, organism-based, Hepacivirus hominis; conditions: OR6, 72 h
[2] = Cytotoxicity against human ORL8 cells after 72 hrs by WST-1 assay; type: cell-based
[3] = Selectivity index, ratio of CC50 for human ORL8 cells to EC50 for Hepatitis C virus infected in […]; type: toxicity, cell-based; conditions: read-out: Ratio CC50/EC50
[4] = tested on: Leukemia cell; experiment: Cytotoxicity against mouse leukemia cells; type: functional, cell-based
[5] = tested on: Cancer cell lines; experiment: Cytotoxicity against human cervical cancer cells; type: functional, cell-based
[6] = tested on: Human betaherpesvirus 5; experiment: Antimicrobial activity against Human cytomegalovirus; type: functional, organism-based
[7] = tested on: Herpesviridae sp.; experiment: Antimicrobial activity against Herpes simplex virus; type: functional, organism-based
[8] = tested on: Vesicular stomatitis virus; experiment: Antimicrobial activity against Vesicular stomatitis virus; type: functional, organism-based
[9] = tested on: Human alphaherpesvirus 3; experiment: Antimicrobial activity against Varicella-zoster virus; type: functional, organism-based
[10] = tested on: Hepatitis C virus; experiment: Antiviral activity against Hepatitis C virus infected in mouse HB-1 cells after 24 hrs by ribonuclease replicon assay; type: functional, organism-based, Hepacivirus hominis; conditions: HB1, 24 h

| Structure (SMILES) | EC50 [1] [µM] | CC50 at 72 h [2] [µM] | selectivity ratio [3] | inhibition [4] | inhibition [5] | Activity [6] | Activity [7] | Activity [8] | Activity [9] | EC50 [10] [µM] |
| --- | --- | --- | --- | --- | --- | --- | --- | --- | --- | --- |
| CC(C)OC(=O)[C@H](C)N[P@](=O)(OC[C@H]1O[C@@H](n2ccc(=O)[nH]c2=O)[C@](C)(F)[C@@H]1O)Oc1ccccc1 [SOFOSBUVIR] | 0.14 | > 5 | > 36 | – | – | – | – | – | – | – |
| Nc1ncnc2c1ncn2[C@@H]1O[C@](F)(CO)[C@H](F)[C@H]1O | > 200 | > 200 | > 1 | inactive | inactive | inactive | inactive | inactive | inactive | – |
| Nc1ncnc2c1ncn2[C@@H]1O[C@@](F)(CO)[C@H](F)[C@H]1O | > 100 | > 100 | > 1 | inactive | inactive | inactive | inactive | inactive | inactive | – |
| Nc1ccn([C@@H]2O[C@](F)(CO)[C@@H](F)[C@H]2O)c(=O)n1 | > 50 | > 50 | < 1 | – | – | – | – | – | – | – |
| Nc1ccn([C@@H]2O[C@](F)(CO)[C@H](F)[C@H]2O)c(=O)n1 | > 100 | 36 | < 0.36 | – | – | – | – | – | – | – |
| Nc1ncnc2c1ncn2[C@@H]1O[C@H](CO)[C@@H](F)[C@H]1O | – | – | – | – | – | – | – | – | – | 1.2 |
| Nc1ccn([C@@H]2O[C@@](F)(CO)[C@H](F)[C@H]2O)c(=O)n1 | > 100 | 23 | < 0.23 | – | – | – | – | – | – | – |
| Nc1ncnc2c1ncn2[C@@H]1O[C@@](F)(CO)[C@@H](F)[C@@H]1O | > 200 | > 200 | > 1 | inactive | inactive | inactive | inactive | inactive | inactive | – |
| NC(=O)c1ncn([C@@H]2O[C@H](CO)[C@@H](O)[C@H]2O)n1 [RIBAVIRIN] | 5.6 | 100 | 18 | – | – | – | – | – | – | – |
| Nc1ncnc2c1ncn2[C@@H]1O[C@](F)(CO)[C@@H](F)[C@H]1O | 4.7 | 90 | 19 | inactive | inactive | inactive | inactive | inactive | inactive | – |
| Nc1ncnc2c1ncn2[C@@H]1O[C@H](CO)C[C@H]1O [CORDYCEPIN] | 70 | 13 | 0.19 | – | – | – | – | – | – | – |
